Results taken from the supplement of paper PMC10307832.

Columns and labels:
Assay in all cases: relative viability (nuclei count vs DMSO), 5 days (fraction); higher = more cells survive
Tosedostat + Navitoclax = compound: CC(C)C[C@@H](C(=O)N[C@H](C(=O)OC1CCCC1)c1ccccc1)[C@H](O)C(=O)NO [Tosedostat] + CC1(C)CCC(c2ccc(Cl)cc2)=C(CN2CCN(c3ccc(C(=O)NS(=O)(=O)c4ccc(N[C@H](CCN5CCOCC5)CSc5ccccc5)c(S(=O)(=O)C(F)(F)F)c4)cc3)CC2)C1 [Navitoclax] (partner 0.5 µM)
Method in brief: (§1)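 Relative viability was taken as the ratio of nuclei in treated wells to nuclei in vehicle wells. Lung cancer cell lines in 1536-well plates received compounds by pin tool one day after seeding, either one drug alone or a fixed anchor-drug dose plus five library-drug doses (not always all listed) in √10 steps. Nuclei were counted on 4× images after 5 days of treatment, and values are medians of duplicate plates.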

[1] = compound: CC1=NN=C(O1)C2=NN=C(C=C2)N3CCC(CC3)OC4=C(C=CC(=C4)F)Cl + N=C(N)NC(=N)NCCc1ccccc1 [Phenformin] (partner 250 µM)
Method in brief: as §1

Tosedostat = compound: CC(C)C[C@@H](C(=O)N[C@H](C(=O)OC1CCCC1)c1ccccc1)[C@H](O)C(=O)NO [Tosedostat]
Method in brief: (§2)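 Viability is treated-well nuclei as a fraction of vehicle-well nuclei, reported as the median across plates. Before counting, lung cancer cell lines were kept overnight at 37 °C in 1536-well plates, pinned with five √10-spaced library-drug doses on vehicle-anchored plates, and left 5 days without medium change, then fixed, permeabilised and Hoechst-stained in one step, imaged at 4× and counted by MetaXpress. A plate passed only if control CV was below 25% and at least one doubling occurred.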

[2] = compound: CC1=NN=C(O1)C2=NN=C(C=C2)N3CCC(CC3)OC4=C(C=CC(=C4)F)Cl
Method in brief: as §2

Cell Line | relative viability (Tosedostat + Navitoclax; first compound 0.02 µM) | relative viability (Tosedostat + Navitoclax; first compound 0.06325 µM) | relative viability (Tosedostat + Navitoclax; first compound 0.2 µM) | relative viability (Tosedostat + Navitoclax; first compound 0.6325 µM) | relative viability (Tosedostat + Navitoclax; first compound 2 µM) | relative viability ([1]; first compound 0.253 µM) | relative viability ([1]; first compound 0.8 µM) | relative viability ([1]; first compound 2.53 µM) | relative viability ([1]; first compound 8 µM) | relative viability (Tosedostat; 0.02 µM) | relative viability (Tosedostat; 0.06325 µM) | relative viability (Tosedostat; 0.2 µM) | relative viability (Tosedostat; 0.6325 µM) | relative viability (Tosedostat; 2 µM) | relative viability ([2]; 0.253 µM) | relative viability ([2]; 0.8 µM) | relative viability ([2]; 2.53 µM) | relative viability ([2]; 8 µM)
LU99A | 0.813 | 0.869 | 0.774 | 0.832 | 0.683 | 0.885 | 0.822 | 0.821 | 0.71 | 1.04 | 1.11 | 0.99 | 0.857 | 0.813 | 1.05 | 0.783 | 0.721 | 0.758
NCI-H520 | 1.19 | 1.3 | 1.14 | 1.08 | 1.4 | 0.509 | 0.414 | 0.741 | 0.578 | 1.02 | 0.977 | 0.937 | 1.15 | 1.14 | 0.91 | 0.813 | 1.16 | 0.968
HCC-827 | 1.01 | 1.03 | 1.06 | 1.03 | 0.86 | 0.388 | 0.258 | 0.354 | 0.36 | 1.03 | 1.06 | 1.1 | 0.957 | 1.01 | 0.47 | 0.297 | 0.455 | 0.443
NCI-H1975 | 1.06 | 1.14 | 1 | 1.01 | 0.869 |  | 0.33 | 0.421 | 0.387 | 0.973 | 1 | 0.884 | 0.788 | 0.733 |  | 0.676 | 0.918 | 0.849
NCI-H2085 | 1.04 | 1.06 | 1.09 | 1.05 | 1.08 | 0.676 |  | 0.629 | 0.565 | 0.918 | 1.02 | 0.983 | 1.02 | 0.99 | 0.901 | 0.736 | 0.908 | 0.795
NCI-H1792 | 0.63 | 0.839 | 0.651 | 0.652 | 0.567 | 0.294 | 0.416 | 0.264 | 0.384 | 1.01 | 1.11 | 0.963 | 0.828 | 1.07 | 0.748 | 0.741 | 0.833 | 0.846
NCI-H1734 | 0.833 | 0.801 | 0.789 | 0.735 | 0.683 | 0.429 | 0.32 | 0.405 | 0.395 | 1.1 | 0.903 | 0.959 | 0.866 | 0.822 | 0.954 | 0.729 | 0.966 | 0.859
LCLC-97TM1 | 0.559 |  |  | 0.633 | 0.293 | 0.501 | 0.396 | 0.427 | 0.437 | 1.12 | 0.973 | 0.876 | 0.83 | 0.621 | 0.795 |  | 0.564 | 0.548
SK-LU-1 | 0.889 | 0.854 | 0.939 | 0.608 | 0.771 | 0.584 |  | 0.534 | 0.475 | 1.1 | 1.09 | 0.92 | 0.938 | 0.854 | 0.935 | 0.783 | 0.943 | 0.722
HOP-62 | 1.19 | 1 | 1.01 | 1.02 | 0.914 | 0.592 | 0.352 | 0.411 | 0.349 | 1.12 | 0.977 | 0.932 | 0.945 | 0.9 | 0.77 | 0.529 | 0.707 | 0.587
NCI-H23 | 0.765 | 0.872 | 0.885 | 0.57 | 0.528 | 0.829 |  | 0.729 | 0.709 | 1.14 | 0.907 | 0.899 | 0.744 | 0.541 | 0.919 | 0.532 | 0.835 | 0.815
